Test results reported in patent publication US8871772B2, “Therapeutic methods and compounds” (Ampio Pharmaceuticals, Inc., priority 2008, dated 2014).

What was measured:
[1] = tested on: Akt; experiment: Akt phosphorylation in WM-266-4 melanoma cells, CASE ELISA (S473); assay type: cell-based; details: IGF-1 stimulated; for inhibition at 50 µM: WM 266-4, WM-266-4, 50 μM
Description: Assays were performed to determine the effect of Cpd. 5 (synthesis described in Example 1) on phosphorylation of Akt in WM-266-4, a metastatic melanoma cell line obtained from ATCC. The WM-266-4 cells were grown in 25 cm^2 flasks using IMDM medium (obtained from Lonza) supplemented with 10% fetal bovine serum (FBS, HyClone) and 1% penicillin/streptomycin solution (Lonza). Cells were removed from the flasks using trypsin/EDTA (Lonza) and counted using trypan blue to establish cell counts. Cells in the above supplemented IMDM medium were added to the wells of a 96-well plate (10,000 cells/well), and the plates were incubated at 37° C., 5% CO2, for 24 hours. After 24 hours, the medium was removed and replaced with medium not containing any serum (serum-free IMDM), and the plates were incubated at 37° C., 5% CO2, for an additional 24 hours.
After this incubation, the test compounds were added to the plates as follows. A 20 mM stock solution of Cpd. 5 was prepared in DMSO and frozen at −80° C. Aliquots of the stock solution were removed and dilutions were made in serum-free IMDM medium. Final concentrations of Cpd. 5 were 10 μM and 50 μM. Controls containing equivalent amounts of DMSO as the two concentrations of Cpd. 5 (0.05% and 0.25%) were mixed for comparative purposes. The other control was the PI3 kinase inhibitor, LY294002 (obtained from Sigma), final concentration of 50 μM. 100 μl of each test compound solution were then added to 96 well culture plates in duplicate, and the plates were placed back into the incubator and incubated at 37° C., 5% CO2, for 1 hour.
(§1) Following this incubation, 100 μl of serum-free IMDM containing either 0 or 400 ng/ml IGF-1 (obtained from Sigma), an Akt phosphorylation promoter, were added, and the plates incubated at 37° C., 5% CO2, for 1 more hour. At the end of this time, the cells were fixed immediately with 4% formaldehyde, refrigerated, and the extent of phosphorylation of Akt determined using the Akt Cellular Activation of Signaling ELISA (CASE™ Kit for AKT S473; SABiosciences, Frederick, Md.) following the manufacturer's protocols. The CASE™ Kit for AKT S473 quantifies the amount of activated (phosphorylated) Akt protein relative to total Akt protein. For further details of the CASE ELISA assay, see Example 6.
The results were calculated as follows. The treatment groups containing IGF-I/DMSO were subtracted from their respective IGF-1/DMSO only groups (positive control). This value was divided by the difference between the respective DMSO only group (negative control) and the respective positive control. This value represents the percent inhibition of Akt phosphorylation attributable to the inhibitor alone since the contribution of DMSO is subtracted out.

[2] = tested on: Akt; experiment: Akt phosphorylation in AU565 breast cancer cells, CASE ELISA (S473); assay type: cell-based; details: Homo sapiens, IGF-1 stimulated; for inhibition at 50 µM: AU565, 50 μM
Description: Assays were performed to determine the effect of Cpd. 5 (synthesis described in Example 1) on phosphorylation of Akt in the AU565 breast cancer cell line. Akt (or protein kinase B, PKB) is a serine/threonine kinase that promotes cellular survival. Akt is activated in response to many different growth factors, including IGF-1, EGF, bFGF, insulin, interleukin-3 (IL-3), IL-6, heregulin and VEGF. Akt has three isoforms, and activation of all three isoforms is similar in that phosphorylation of two sites is necessary for full activity. Once activated, Akt exerts anti-apoptotic effects through phosphorylation of substrates that directly or indirectly regulate apoptosis. Activation of the phosphatidylinositol 3 kinase (PI3K)/Akt signaling pathway contributes to tumorigenesis in many types of tissues, including breast, ovarian, brain, prostate and lymph tissues.
AU565 cells were grown in 75 cm^2 flasks using Iscove's modified Dulbecco's medium (IMDM; obtained from Lonza) supplemented with 10% fetal bovine serum (FBS, HyClone) and 1% penicillin/streptomycin solution (Lonza). Cells were removed from the flasks using trypsin/EDTA (Lonza) and counted using trypan blue to establish cell counts. […]
as §1, with “insulin-like growth factor-1 (IGF-1)” for “IGF-1”, “[…];” for “S473;”, “protein in parallel assays using a conventional” for “protein. For further details of the CASE”, “format with colorimetric detection. […] Both primary antibodies are detected using a horseradish peroxidase-labeled secondary antibody. […]” for “assay, see Example 6.”
The results were calculated as follows. […]

Structure (SMILES): COC(=O)C(c1ccc(-c2ccccc2)cc1)C1NC(=O)CNC1=O (stereo not shown) [Cpd. 5, biphenyl-4-yl-(3,6-dioxo-piperazin-2-yl)-acetic acid methyl ester]
- inhibition at 10 µM ([1]; Homo sapiens, WM 266-4, WM-266-4, 10 μM): 102%
- inhibition at 50 µM ([1]; Homo sapiens): 47%
- MEAN % INHIBITION OF Akt PHOSPHORYLATION ([1]; WM-266-4, 50 μM, 50 µM): 55.9%
- inhibition at 10 µM ([2]; AU565, 10 μM): 104%
- inhibition at 50 µM [2]: 92%

Structure (SMILES): O=c1cc(N2CCOCC2)oc2c(-c3ccccc3)cccc12 [LY294002, reference compound]
- inhibition at 50 µM ([1]; Homo sapiens): 23.1%
- inhibition at 50 µM [2]: 92.4%
